Laboratory results reported in the supplement of paper PMC10331698.
± gives the standard deviation of the averaged measurements.

Assays:
Assay in all cases: level (log10 ratio to DMSO vehicle control); higher = higher biomarker level / cell amount than vehicle control
Details in all cases: in DMSO
[1] = compound: COC(=O)C(F)(F)C(F)(F)OC(F)(C(F)(F)F)C(F)(F)OC(F)=C(F)F [Methyl perfluoro(3-(1-ethenyloxypropan-2-yloxy)propanoate)]
Protocol: (§1)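 BioMAP Diversity Plus panel of 12 human primary cell co-culture systems (3C, 4H, LPS, SAg, BT, BF4T, BE3C, CASM3C, HDF3CGF, KF3CT, MyoF, Mphg). Compounds were added 1 h before stimulation and left for 24 h (MyoF 48 h; BT 72 h for soluble read-outs or 6 d for IgG). Biomarkers were read by ELISA, cytotoxicity by SRB, PBMC viability and proliferation by Alamar Blue. Each well value was divided by the mean of 8 DMSO control wells on the same plate and log10 transformed; duplicate blinded samples were tested at 4 concentrations.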

[2] = compound: FC(F)(F)C(F)(F)C(F)(F)C(F)(F)C(F)(F)C(F)(F)C(F)(F)I [1-Iodopentadecafluoroheptane]
Protocol: as §1

Octafluoroadipamide = compound: NC(=O)C(F)(F)C(F)(F)C(F)(F)C(F)(F)C(N)=O [Octafluoroadipamide]
Protocol: as §1

Nonafluoropentanamide = compound: NC(=O)C(F)(F)C(F)(F)C(F)(F)C(F)(F)F [Nonafluoropentanamide]
Protocol: as §1

[3] = compound: O=C(O)C=CC(F)(C(F)(F)F)C(F)(F)F [3-(Perfluoroisopropyl)-2-propenoic acid]
Protocol: as §1

[4] = compound: O=S(=O)(F)C(F)(F)C(F)(F)C(F)(F)C(F)(F)C(F)(F)C(F)(F)C(F)(F)C(F)(F)F [Perfluorooctanesulfonyl fluoride]
Protocol: as §1

Hexafluoroamylene glycol = compound: OCC(F)(F)C(F)(F)C(F)(F)CO [Hexafluoroamylene glycol]
Protocol: as §1

Test System | level (log10) ([1]; 6700 nM) | level (log10) ([1]; 20000 nM) | level (log10) ([2]; 6700 nM) | level (log10) ([2]; 20000 nM) | level (log10) (Octafluoroadipamide; 6700 nM) | level (log10) (Octafluoroadipamide; 20000 nM) | level (log10) (Octafluoroadipamide; 60000 nM) | level (log10) (Nonafluoropentanamide; 6700 nM) | level (log10) (Nonafluoropentanamide; 20000 nM) | level (log10) (Nonafluoropentanamide; 60000 nM) | level (log10) ([3]; 6700 nM) | level (log10) ([3]; 20000 nM) | level (log10) ([3]; 60000 nM) | level (log10) ([4]; 6700 nM) | level (log10) ([4]; 20000 nM) | level (log10) ([4]; 60000 nM) | level (log10) (Hexafluoroamylene glycol; 6700 nM) | level (log10) (Hexafluoroamylene glycol; 20000 nM) | level (log10) (Hexafluoroamylene glycol; 60000 nM)
HDF3CGF:TIMP-2 | -0.043 ± 0.0028 | -0.051 ± 0.028 | 0.015 ± 0.0057 | 0.0035 ± 0.0035 | -0.0695 ± 0.13 | -0.035 ± 0.061 | -0.002 ± 0.013 | -0.0315 ± 0.016 | 0.0165 ± 0.06 | 0.0025 ± 0.091 | -0.0105 ± 0.0021 | -0.0045 ± 0.011 | -0.0115 ± 0.012 | -0.0005 ± 0.011 | 0.0185 ± 0.012 | -0.0085 ± 0.042 | -0.0205 ± 0.029 | -0.024 ± 0.014 | 0.0025 ± 0.032
KF3CT:CXCL10/IP-10 | -0.0235 ± 0.0021 | -0.023 ± 0.0057 | -0.005 ± 0.014 | -0.0085 ± 0.00071 | -0.002 ± 0.0042 | 0.002 ± 0.0071 | 0.0005 ± 0.005 | -0.011 ± 0.0071 | 0.009 ± 0.0042 | -0.001 ± 0.017 | 0.0105 ± 0.035 | 0.0075 ± 0.032 | 0.0125 ± 0.023 | -0.0015 ± 0.0035 | -0.0105 ± 0.00071 | -0.011 ± 0.014 | 0.0015 ± 0.015 | -0.008 ± 0.0099 | -0.0035 ± 0.0092
CASM3C:IL-6 | -0.018 ± 0.02 | -0.0065 ± 0.025 | -0.0425 ± 0.026 | -0.0035 ± 0.053 | -0.0145 ± 0.0064 | -0.0185 ± 0.0035 | 0 ± 0.051 | 0.0185 ± 0.06 | -0.0285 ± 0.021 | 0.015 ± 0.014 | -0.035 ± 0.011 | -0.0525 ± 0.00071 | 0.001 ± 0.092 | -0.014 ± 0.02 | -0.008 ± 0.0071 | -0.0125 ± 0.061 | -0.0015 ± 0.015 | -0.0155 ± 0.016 | 0.028 ± 0.028
BE3C:MMP-9 | -0.041 ± 0.038 | -0.004 ± 0.0057 | -0.014 ± 0.035 | -0.0465 ± 0.015 | -0.024 ± 0.021 | -0.0235 ± 0.015 | 0.0015 ± 0.029 | -0.0405 ± 0.03 | -0.026 ± 0.0071 | -0.0095 ± 0.005 | -0.018 ± 0.0042 | -0.008 ± 0.0028 | 0.007 ± 0.04 | -0.025 ± 0.024 | -0.02 ± 0.0042 | -0.026 ± 0.0071 | -0.014 ± 0.0099 | -0.01 ± 0.0057 | 0.008 ± 0.033
3C:CXCL9/MIG | -0.0025 ± 0.012 | -0.0005 ± 0.00071 | 0.001 ± 0.0099 | -0.002 ± 0.0042 | -0.002 ± 0.0028 | 0 ± 0.0057 | 0.024 ± 0.011 | -0.0005 ± 0.0021 | -0.0005 ± 0.021 | 0.0065 ± 0.012 | 0.004 ± 0.0071 | -0.0105 ± 0.0064 | 0.0045 ± 0.016 | -0.008 ± 0.0099 | -0.0015 ± 0.00071 | 0.0055 ± 0.012 | -0.006 ± 0.0071 | -0.01 ± 0.0057 | 0.007
CASM3C:CCL2/MCP-1 | -0.001 ± 0.0014 | 0.008 ± 0.016 | -0.01 ± 0.0042 | 0.005 ± 0.018 | -0.0095 ± 0.0078 | -0.0085 ± 0.0078 | 0.017 ± 0.02 | -0.014 ± 0.0028 | 0.001 ± 0.0099 | -0.001 ± 0.0014 | 0.007 ± 0.017 | -0.0055 ± 0.011 | 0.023 ± 0.044 | -0.004 ± 0.014 | -0.0035 ± 0.005 | 0.0055 ± 0.03 | -0.0085 ± 0.0064 | -0.014 ± 0.011 | 0.012 ± 0.047
lMphg:CD106/VCAM-1 | -0.008 ± 0.025 | -0.006 ± 0.025 | -0.0025 ± 0.0064 | -0.007 ± 0.017 | 0.014 ± 0.013 | 0.019 ± 0.0085 | 0.0125 ± 0.0021 | -0.0255 ± 0.033 | 0.0065 ± 0.028 | -0.012 ± 0.028 | 0.001 ± 0.024 | 0.0125 ± 0.005 | 0.002 ± 0.034 | 0.009 ± 0.017 | 0.0205 ± 0.012 | -0.0125 ± 0.0092 | -0.0185 ± 0.012 | -0.014 ± 0.0057 | -0.0175 ± 0.0092
3C:SRB | 0.006 ± 0.0071 | 0.004 ± 0.0042 | -0.001 | 0.001 ± 0.0014 | -0.0105 ± 0.047 | -0.008 ± 0.052 | -0.005 ± 0.03 | -0.002 ± 0.0042 | 0.0005 ± 0.0035 | -0.011 | 0.0035 ± 0.0078 | 0.0055 ± 0.019 | 0.0155 ± 0.015 | 0.0035 ± 0.00071 | -0.0035 ± 0.0078 | -0.003 ± 0.013 | -0.01 ± 0.0085 | -0.0035 ± 0.021 | 0 ± 0.021
CASM3C:LDLR | -0.0035 ± 0.005 | 0.0085 ± 0.033 | -0.002 ± 0.013 | -0.014 | -0.0045 ± 0.0064 | -0.005 ± 0.016 | 0.007 ± 0.0085 | 0.0055 ± 0.059 | -0.035 ± 0.0028 | 0.021 ± 0.072 | -0.006 ± 0.017 | -0.0045 ± 0.00071 | 0.008 ± 0.017 | 0.0035 ± 0.0021 | 0.0015 ± 0.012 | 0.0055 ± 0.023 | -0.007 ± 0.013 | -0.0095 ± 0.019 | 0.024 ± 0.037
BE3C:MMP-1 | 0.102 ± 0.025 | 0.176 ± 0.0092 | -0.0205 ± 0.0078 | -0.011 | -0.01 ± 0.0028 | -0.023 ± 0.037 | 0.0305 ± 0.074 | 0.003 ± 0.0071 | 0.052 ± 0.075 | 0.0795 ± 0.023 | 0.0495 ± 0.06 | 0.034 ± 0.061 | 0.085 ± 0.0028 | -0.0045 ± 0.00071 | -0.001 ± 0.014 | -0.0005 ± 0.013 | -0.009 ± 0.017 | -0.03 ± 0.0057 | 0.015 ± 0.025
